Assay results taken from patent US6410561B1, “Amide derivatives and nociceptin antagonists” (Japan Tobacco Inc., priority 1998, dated 2002).
Read-outs that look alike come from different tables or passages of the source. Values belong to the compound of their own block, whether it stands above or below them.

Columns and labels:
allodynia model = test: Allodynia test (intrathecal nociceptin, tactile stimulation); type: in vivo, Mice; details: Mus musculus, read-out: Allodynia M.E.D. (minimum effective dose)
Experimental: Mice (Crj, ICR, 4-week-old, male) were intrathecally administered with nociceptin (50 pg/5 μl) without anesthesia. For 20 min after administration and at 5 min intervals, an area from lateral region to tail of the mice was rubbed with a brush and the response of the mice was observed. The evaluation followed the criteria of 0; no change, 1; run or cry upon tactile stimulation, and 2; cry loud or dash away upon tactile stimulation. The test compound was suspended in a 0.5% MC solution and orally administered 60 min before nociceptin administration. The significant difference of the score of each administration group at 20 min after nociceptin administration from the group administered with solvent was analyzed with Mann-Whitny U-test.

μ receptor = molecular target: T1, μ receptor (Rattus norvegicus, UniProt P33535); test: μ receptor binding assay ([3H]DAMGO); details: for Ki: calculated from IC50 and Kd of [3H]DAMGO; for IC50: rat cerebrum membrane, [3H]DAMGO 1 nM
T1 construct: Rat cerebrum membrane standard sample; from tissue; host or cells: rat cerebrum membranes
T1 sequence (P33535 whole entry): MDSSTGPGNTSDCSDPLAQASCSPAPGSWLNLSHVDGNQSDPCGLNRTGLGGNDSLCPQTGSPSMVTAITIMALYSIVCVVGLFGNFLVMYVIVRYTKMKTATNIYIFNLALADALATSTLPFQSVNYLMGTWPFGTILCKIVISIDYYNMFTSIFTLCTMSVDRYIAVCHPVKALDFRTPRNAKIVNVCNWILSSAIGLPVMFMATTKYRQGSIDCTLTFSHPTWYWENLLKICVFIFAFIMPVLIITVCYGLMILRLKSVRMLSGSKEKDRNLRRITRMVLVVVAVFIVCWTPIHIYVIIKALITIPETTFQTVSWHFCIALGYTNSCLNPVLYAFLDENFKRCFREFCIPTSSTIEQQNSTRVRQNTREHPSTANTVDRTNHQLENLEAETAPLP
Experimental: Rat cerebrum membrane standard sample (final concentration 0.755 mg·protein/ml), [^3H]DAMGO (Try-D-Ala-Gly-NMe-Phe-Gly-ol) [diluted with Tris buffer (50 mM Tris-HCl, 0.1 mM p-APMSF, 2 mg/ml BSA (pH=7.4)) to a final concentration of 1 nM] and test compound (diluted with Tris buffer to a final concentration of 10 nM-10 μM) were mixed, and the mixture was incubated at room temperature for 90 min. The membrane was recovered on a G/F-B filter (same as above) using a cell harvester and the reaction was stopped. After washing 3 times, the filter was dried at 42° C. for 1 hr. A scintillation solution (same as above) was added and the radioactivity (same as above) was assayed.
(§1) The nonspecific binding was the binding in the presence of 10 μM naloxone and the difference between the total binding and nonspecific binding was taken as the specific binding. IC50 was calculated from inhibition of specific binding at each concentration of the compound, and Ki value of the test compound was calculated from this value and Kd value of [^3H]DAMGO.

ORL-1 receptor = molecular target: T2, ORL-1 receptor (Homo sapiens, UniProt P41146); test: ORL1 receptor binding assay ([3H]nociceptin); details: for IC50: membrane of human ORL-1 expression cells, [3H]nociceptin 0.5 nM; for Ki: calculated from IC50 and Kd of [3H]nociceptin
T2 construct: expressed in transfected cells
T2 sequence (P41146 whole entry): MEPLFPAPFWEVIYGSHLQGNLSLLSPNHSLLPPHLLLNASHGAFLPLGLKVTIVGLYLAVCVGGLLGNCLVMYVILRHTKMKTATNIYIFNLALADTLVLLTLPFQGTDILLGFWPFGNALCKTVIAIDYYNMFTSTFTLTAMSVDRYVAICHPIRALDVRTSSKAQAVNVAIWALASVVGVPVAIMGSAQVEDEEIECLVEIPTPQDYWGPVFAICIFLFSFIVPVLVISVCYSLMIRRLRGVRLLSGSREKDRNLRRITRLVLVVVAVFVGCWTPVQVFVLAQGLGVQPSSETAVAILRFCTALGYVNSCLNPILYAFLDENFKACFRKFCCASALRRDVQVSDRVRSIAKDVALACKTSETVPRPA
Experimental: ORL1 Receptor Binding Assay
A cell membrane suspension obtained from human ORL-1 expression cells was adjusted with Tris buffer [50 mM Tris, 2 mM EDTA, 0.1 mM (p-Amidinophenyl)methanesulfonyl Fluoride Hydrochloride (p-APMSF), 2 mg/ml BSA] to membrane protein amount of about 25 μg/ml (2.5 μg/well). This was mixed with [^3H]nociceptin (diluted with Tris buffer to a final concentration of 0.5 nM) and test compound (diluted with Tris buffer to a final concentration of 10 nM-10 μM), and the mixture was incubated at room temperature for 60 min. The membrane was recovered on a G/F-B filter (Packard, Unifilter 96GF/B) using a cell harvester and the reaction was stopped. After washing 3 times, the filter was dried at 42° C. for 1 hr. A scintillation solution (Packard, microscint-20) was added and the radioactivity (Packard, Top count A9912V) was assayed.
as §1, with “1” for “10”, “nociceptin” for “naloxone”, “[^3H]nociceptin.” for “[^3H]DAMGO.”

Mice = test: Hot-plate test; type: in vivo; details: Mus musculus, 1 h, oral, 60 min after administration, 55.5°C, read-out: Hot-plate M.E.D. (minimum effective dose)
Experimental: Mice (Crj, ICR, 4-week-old, male) were placed on a hot-plate (temperature 55.5±0.5° C.) and the time until the mice jumped and tried to run away was recorded. The mice were grouped according to the time and body weight so that the groups were evenly membered. The test compound was suspended in a 0.5% methylcellulose (MC) solution and orally administered to mice. After 60 min, the mice were again placed on a hot-plate and the time until they licked the hindlimb or jumped and tried to run away was recorded. The significant difference from the group administered with solvent was analyzed with ANOVA followed by Dunnett two-tailed test.

[1] = mice, oral, 60 min before nociceptin 50 pg i.t., score at 20 min

SMILES: Cc1ccc(OCc2ccccc2C(=O)Nc2ccc3nc(C)cc(N)c3c2)cc1.Cl [Example 17, N-(4-amino-2-methyl-6-quinolyl)-2-[(4-methylphenoxy)methyl]benzamide hydrochloride]
minimal effective dose (allodynia model; po): 0.3 mg/kg | melting point: 255 °C | Ki (μ receptor): 385 nM | IC50 (μ receptor): 1020 nM | IC50 (ORL-1 receptor): 130 nM | minimal effective dose (Mice): 1 mg/kg

SMILES: Cc1cc(N)c2cc(NC(=O)c3ccccc3COc3cccc([N+](=O)[O-])c3)ccc2n1.Cl [Example 19, N-(4-amino-2-methyl-6-quinolyl)-2-[(3-nitrophenoxy)methyl]benzamide hydrochloride]
minimal effective dose (allodynia model; [1]): 0.1 mg/kg | melting point: 245 °C | Ki (μ receptor): 388 nM | IC50 (μ receptor): 1030 nM | Ki (ORL-1 receptor): 9 nM | IC50 (ORL-1 receptor): 160 nM | minimal effective dose (Mice): 3 mg/kg

SMILES: Cc1cc(N)c2cc(NC(=O)c3ccccc3COc3ccc(Cl)c(Cl)c3)ccc2n1.Cl [Example 26, N-(4-amino-2-methyl-6-quinolyl)-2-[(3,4-dichlorophenoxy)methyl]benzamide hydrochloride]
minimal effective dose (allodynia model; [1]): 0.3 mg/kg | melting point: 223 °C | Ki (μ receptor): 479 nM | IC50 (μ receptor): 1220 nM | Ki (ORL-1 receptor): 4 nM | IC50 (ORL-1 receptor): 80 nM | minimal effective dose (Mice): 1 mg/kg

Continued, in another order:

melting point: 268 °C | Ki (μ receptor): 414 nM | IC50 (μ receptor): 1050 nM | Ki (ORL-1 receptor): 9 nM | IC50 (ORL-1 receptor): 160 nM
SMILES: Cc1cc(N)c2cc(NC(=O)c3ccccc3COc3ccc(C(C)(C)C)cc3)ccc2n1.Cl [Example 29, N-(4-amino-2-methyl-6-quinolyl)-2-[(4-tert-butylphenoxy)methyl]benzamide hydrochloride]
minimal effective dose (allodynia model; [1]): > 0.3 mg/kg | minimal effective dose (Mice): 3 mg/kg

melting point: 285 °C | Ki (μ receptor): 419 nM | IC50 (μ receptor): 1110 nM | Ki (ORL-1 receptor): 129 nM | IC50 (ORL-1 receptor): 2520 nM
SMILES: COc1ccc(CCc2ccccc2C(=O)Nc2ccc3nc(C)cc(N)c3c2)cc1.Cl [Example 84]
minimal effective dose (allodynia model; [1]): < 3 mg/kg | minimal effective dose (Mice): > 10 mg/kg

melting point: 245.9 °C | Ki (μ receptor): 548 nM | IC50 (μ receptor): 1460 nM | Ki (ORL-1 receptor): 6 nM | IC50 (ORL-1 receptor): 130 nM
SMILES: CCc1ccc(OCc2ccccc2C(=O)Nc2ccc3nc(C)cc(N)c3c2)c(Cl)c1.Cl [Example 89, N-(4-amino-2-methyl-6-quinolyl)-2-[(2-chloro-4-ethylphenoxy)methyl]benzamide hydrochloride]
minimal effective dose (allodynia model; [1]): 0.3 mg/kg | minimal effective dose (Mice): 1 mg/kg
